Source: paper PMC9250238 (BMC Complementary Medicine and Therapies, 2022)
Read-outs that look alike come from different tables or passages of the source.

Legend:
[1] = target: T1, α-amylase (porcine pancreas) (Sus scrofa, UniProt P00690); assay: Kinetic test for α-amylase (Lineweaver–Burk); format: biochemical; design: purchased Sigma–Aldrich; host or cells: porcine pancreas; conditions: Lineweaver–Burk plots
T1 sequence (P00690 16-511): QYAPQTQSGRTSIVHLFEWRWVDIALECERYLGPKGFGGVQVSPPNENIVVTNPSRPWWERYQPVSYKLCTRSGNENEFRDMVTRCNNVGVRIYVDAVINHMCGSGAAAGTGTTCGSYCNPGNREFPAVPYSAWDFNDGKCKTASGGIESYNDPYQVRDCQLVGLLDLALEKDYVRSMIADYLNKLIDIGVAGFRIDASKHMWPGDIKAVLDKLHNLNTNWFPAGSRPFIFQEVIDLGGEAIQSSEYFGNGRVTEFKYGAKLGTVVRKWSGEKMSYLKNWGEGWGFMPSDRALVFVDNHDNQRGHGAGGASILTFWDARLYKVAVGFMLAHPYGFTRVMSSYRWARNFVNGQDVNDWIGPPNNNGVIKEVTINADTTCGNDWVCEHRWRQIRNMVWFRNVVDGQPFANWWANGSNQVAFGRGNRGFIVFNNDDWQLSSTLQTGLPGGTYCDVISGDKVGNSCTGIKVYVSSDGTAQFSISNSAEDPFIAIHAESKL
Description: (§1) Changes in α-amylase activities were quantitatively analysed via a method based on starch-iodine colorimetric detection. […] A mixture of 40 μL of starch solution and 40 μL of selected compounds was maintained at 37 °C for 10 min, and 80 μL α-amylase (5 U/mL) was added to start the reaction. After 30 min at 37 °C, terminations were achieved using 40 μL of 1 M HCl.

[2] = target: T1, α-amylase (porcine pancreas); assay: α-Amylase inhibition assay (starch-iodine); conditions: for IC50 against α-amylase (result in words): in the test concentration range
Description: Changes in α-amylase activities were quantitatively analysed via a method based on starch-iodine colorimetric detection [21]. […] A mixture of 40 μL of starch solution and 40 μL of selected compounds was maintained at 37 °C for 10 min, and 80 μL α-amylase (5 U/mL) was added to start the reaction. After 30 min at 37 °C, terminations were achieved using 40 μL of 1 M HCl.

[3] = target: T1, α-amylase (porcine pancreas); assay: Combined inhibition of acarbose and selected flavonoids against α-amylase (CompuSyn CI); format: biochemical; design: purchased Sigma–Aldrich; host or cells: porcine pancreas; conditions: CI >1.1 antagonistic, 0.9-1.1 additive, <0.9 synergistic
Description: as §1
(§2) A combination index (CI) was employed to evaluate the impacts of binary inhibitors on α-glucosidase and α-amylase. […] When the CI values were above 1.1, between 0.9 and 1.1, and below 0.9, the effects were defined as antagonistic, additive, and synergistic.

[4] = target: T2, α-glucosidase (Saccharomyces cerevisiae) (Saccharomyces cerevisiae, UniProt P53341); assay: Kinetic test for α-glucosidase (Lineweaver–Burk)
T2 sequence (P53341 whole entry): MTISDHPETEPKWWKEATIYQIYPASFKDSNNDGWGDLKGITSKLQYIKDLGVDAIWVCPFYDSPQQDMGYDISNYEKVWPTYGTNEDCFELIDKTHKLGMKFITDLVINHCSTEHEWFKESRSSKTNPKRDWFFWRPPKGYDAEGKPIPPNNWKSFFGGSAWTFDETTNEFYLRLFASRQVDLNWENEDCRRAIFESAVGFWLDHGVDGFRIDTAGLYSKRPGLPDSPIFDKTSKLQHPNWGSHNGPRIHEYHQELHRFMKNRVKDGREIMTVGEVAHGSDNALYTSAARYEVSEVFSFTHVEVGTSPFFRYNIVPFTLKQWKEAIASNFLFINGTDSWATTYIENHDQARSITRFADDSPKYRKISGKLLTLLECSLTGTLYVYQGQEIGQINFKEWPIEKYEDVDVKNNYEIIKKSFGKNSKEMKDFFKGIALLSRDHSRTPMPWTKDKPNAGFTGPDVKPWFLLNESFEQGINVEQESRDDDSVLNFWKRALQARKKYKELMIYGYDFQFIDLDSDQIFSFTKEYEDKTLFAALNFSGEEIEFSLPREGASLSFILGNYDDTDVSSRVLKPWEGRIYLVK
Description: A measured amount of pNPG powder was dissolved at 2 mg/mL in 0.01 M phosphate buffer (pH = 6.8), and then 50 μL of the pNPG solution was mixed with an equal volume of isolated compounds from D. angustifolia Roxb, which were diluted to 4 mM. After being kept at 37 °C for 10 min, 25 μL of α-glucosidase (0.5 U/mL) was added. Following another 10 min incubation at 37 °C, the reaction was stopped with 125 μL of 0.2 M Na2CO3, and the absorbance at 410 nm of each sample (converted pNP) was measured via a microplate reader (BioTek ELX-800, USA). […] To acquire the inhibition type and related parameters of those inhibitors, kinetic assays were carried out, and the conditions of enzymatic reactions are detailed in the above section, in which the amount of enzymes was fixed. With an increasing amount of substrate, the amount of hydrolysed pNPG or starch in the presence of compounds (concentration gradient was established on the basis of their IC50 value) was quantified to create Lineweaver–Burk plots.

[5] = target: T2, α-glucosidase (Saccharomyces cerevisiae); assay: Combined inhibition of acarbose and selected compounds against α-glucosidase (CompuSyn CI); format: biochemical; design: purchased Sigma–Aldrich; conditions: for Type of interaction with acarbose against α-glucosidase: CI >1.1 antagonistic, 0.9-1.1 additive, <0.9 synergistic; for CI values against α-glucosidase: combination with acarbose, over tested concentrations
From the text: as §2

[6] = target: T2, α-glucosidase (Saccharomyces cerevisiae); assay: biochemical
Description: (§3) α-Glucosidase inhibitor screening was conducted according to a previously reported procedure with slight modifications [20]. A measured amount of pNPG powder was dissolved at 2 mg/mL in 0.01 M phosphate buffer (pH = 6.8), and then 50 μL of the pNPG solution was mixed with an equal volume of isolated compounds from D. angustifolia Roxb, which were diluted to 4 mM. After being kept at 37 °C for 10 min, 25 μL of α-glucosidase (0.5 U/mL) was added. Following another 10 min incubation at 37 °C, the reaction was stopped with 125 μL of 0.2 M Na2CO3, and the absorbance at 410 nm of each sample (converted pNP) was measured via a microplate reader (BioTek ELX-800, USA).

[7] = target: T2, α-glucosidase (Saccharomyces cerevisiae); conditions: read-out: IC50 against α-glucosidase; in vitro, pNPG substrate, 37 °C, pH 6.8
Description: as §3

**Q.** Which Ki [1] does the source give for Cc1c(O)cc2c(c1O)C(=O)C(Cc1ccc(O)cc1)CO2 (centres unmarked) [Compound 8, 5,7-dihydroxy-6-methyl-3-(4′-hydroxybenzyl) chroman-4-one] here?
**A.** 14100 ± 3530 µM

**Q.** What about the “Mode of inhibition (α-amylase)” value [1] of the same molecule?
**A.** Mixed

**Q.** What about the IC50 [2] of the same molecule?
**A.** 5990 ± 60 µM

**Q.** And the “Type of interaction with acarbose against α-amylase” value (“Type … against α-amylase” below) [3]?
**A.** additive effects

**Q.** And the Ki [4]?
**A.** 11.2 ± 0.99 µM

**Q.** And the “Mode of inhibition (α-glucosidase)” value ([4]; Lineweaver–Burk plots)?
**A.** Competitive

**Q.** And the “Type of interaction with acarbose against α-glucosidase” value (from here on “Type … against α-glucosidase”) [5]?
**A.** synergism

**Q.** And the “CI values against α-glucosidase” value [5]?
**A.** below 0.9

**Q.** What about the IC50 [6] of the same molecule?
**A.** 520 ± 10 µM

**Q.** How did the Ki [4] turn out when COc1cc(O)c2c(c1C)O[C@H](c1ccc(O)cc1)CC2 [Compound 5, (2S)-4′,5-Dihydroxy-7-methoxy-8-methylflavan] was run?
**A.** 39.9 ± 8.47 µM

**Q.** What about the “Mode of inhibition (α-glucosidase)” value ([4]; Lineweaver–Burk plots) of the same molecule?
**A.** noncompetitive inhibitor

**Q.** And the IC50 [6]?
**A.** 240 ± 30 µM

**Q.** For O=c1c(Cc2ccc(O)cc2)coc2cc(O)cc(O)c12 [Compound 9, 5,7-dihydroxy-3-(4′-hydroxybenzyl) chromone], which Ki [1] is on record?
**A.** 8590 ± 1940 µM

**Q.** And the “Mode of inhibition (α-amylase)” value [1]?
**A.** Mixed

**Q.** What about the IC50 [2] of the same molecule?
**A.** 2590 ± 50 µM

**Q.** And the “Type … against α-amylase” value [3]?
**A.** additive effects

**Q.** What about the Ki [4] of the same molecule?
**A.** 54.4 ± 15.8 µM

**Q.** And the “Mode of inhibition (α-glucosidase)” value ([4]; Lineweaver–Burk plots)?
**A.** Mixed

**Q.** And the “Type … against α-glucosidase” value [5]?
**A.** synergism

**Q.** What about the “CI values against α-glucosidase” value [5] of the same molecule?
**A.** below 0.9

**Q.** What about the IC50 [6] of the same molecule?
**A.** 650 ± 10 µM

**Q.** For CCO[C@@H](c1ccc(O)c(OC)c1)[C@H](O)CO [Compound 22, erythro-7R,8S-7-O-ethylguaiacyl glycerol], which “IC50 against α-amylase (result in words)” value [2] is on record?
**A.** did not yield 50% inhibition

**Q.** What about the Ki [4] of the same molecule?
**A.** 7 ± 1.97 µM

**Q.** What about the “Mode of inhibition (α-glucosidase)” value ([4]; Lineweaver–Burk plots) of the same molecule?
**A.** Mixed

**Q.** What about the “Type … against α-glucosidase” value [5] of the same molecule?
**A.** synergism

**Q.** And the “CI values against α-glucosidase” value [5]?
**A.** below 0.9

**Q.** What about the IC50 [6] of the same molecule?
**A.** 40 ± 4 µM

**Q.** “(2S)-4′-hydroxy-5,7-dimethoxy-8-methylflavan [Compound 6]” was tested. Which Ki [1] did it give?
**A.** 27500 ± 3510 µM

**Q.** What about the “Mode of inhibition (α-amylase)” value [1] of the same molecule?
**A.** Mixed

**Q.** And the IC50 ([2]; read-out: IC50 against α-amylase, in vitro, starch-iodine method, 37 °C)?
**A.** 6030 ± 270 µM

**Q.** And the “Type … against α-amylase” value [3]?
**A.** additive effects

**Q.** And the “Mode of inhibition (α-glucosidase)” value ([4]; Lineweaver–Burk plots)?
**A.** Mixed

**Q.** And the Ki ([4]; read-out: Ki (α-glucosidase), Lineweaver–Burk plots)?
**A.** 57.8 ± 1.67 µM

**Q.** What about the “Type … against α-glucosidase” value [5] of the same molecule?
**A.** slight antagonism

**Q.** What about the “CI (combination index) against α-glucosidase” value ([5]; highest concentration pair (about IC50), acarbose 5 mM, No.6/No.8 0.5 mM, No.9/No.24 1 mM, No.22 50 μM) of the same molecule?
**A.** 1.12

**Q.** What about the IC50 [7] of the same molecule?
**A.** 370 ± 20 µM

**Q.** Which results are given for Cc1c(Cl)c(O)cc(O)c1Cl [Compound 24, 4,6-dichloro-5-methyl-benzene-1,3-diol]?
**A.** IC50 against α-amylase (result in words) [2]: did not yield 50% inhibition; Ki [4]: 44 ± 0.88 µM; Mode of inhibition (α-glucosidase) ([4]; Lineweaver–Burk plots): Mixed; Type of interaction with acarbose against α-glucosidase [5]: moderate additive effects; IC50 [6]: 780 ± 30 µM

**Q.** Which Ki [4] does the source give for O=C(/C=C/c1ccc(O)cc1)NCCc1ccc(O)cc1 [Compound 18, trans-N-p-coumaroyltyramine] here?
**A.** 21.1 ± 12.2 µM

**Q.** What about the “Mode of inhibition (α-glucosidase)” value ([4]; Lineweaver–Burk plots) of the same molecule?
**A.** Uncompetitive

**Q.** What about the IC50 [6] of the same molecule?
**A.** 1.99 ± 0.2 µM
